Test results taken from ChEMBL document CHEMBL5518225, “Mechanism-Based Macrocyclic Inhibitors of Serine Proteases” (J Med Chem, 2024).

Assays:
[1] = Metabolic stability in human plasma assessed as half life; format: ADME, cell-free
[2] = Metabolic stability in mouse plasma assessed as half life; format: ADME, cell-free
[3] = Metabolic stability in mouse plasma assessed as compound remaining measured at 2 hrs; format: ADME, cell-free; conditions: read-out: Stability
[4] = Elimination half life in male CD-1 mouse at 13 to 20 mg/kg, ip administered as single dose and measured upto 24 hrs by LC-MS/MS analysis; format: ADME, organism-based; conditions: in vivo, dose 13-20 mg/kg
[5] = Metabolic stability in human plasma assessed as compound remaining measured at 2 hrs; format: ADME, cell-free; conditions: read-out: Stability
[6] = molecular target: T1, Suppressor of tumorigenicity 14 protein (Homo sapiens, UniProt Q9Y5Y6); assay: Inhibition of N-terminal Met/6His tagged human recombinant matriptase catalytic domain (Gly596 to Val855 residues) using Boc-QAR-AMC as substrate preincubated for 30 mins followed by substrate addition and measured by fluorescence based analysis
T1 sequence (Q9Y5Y6 whole entry): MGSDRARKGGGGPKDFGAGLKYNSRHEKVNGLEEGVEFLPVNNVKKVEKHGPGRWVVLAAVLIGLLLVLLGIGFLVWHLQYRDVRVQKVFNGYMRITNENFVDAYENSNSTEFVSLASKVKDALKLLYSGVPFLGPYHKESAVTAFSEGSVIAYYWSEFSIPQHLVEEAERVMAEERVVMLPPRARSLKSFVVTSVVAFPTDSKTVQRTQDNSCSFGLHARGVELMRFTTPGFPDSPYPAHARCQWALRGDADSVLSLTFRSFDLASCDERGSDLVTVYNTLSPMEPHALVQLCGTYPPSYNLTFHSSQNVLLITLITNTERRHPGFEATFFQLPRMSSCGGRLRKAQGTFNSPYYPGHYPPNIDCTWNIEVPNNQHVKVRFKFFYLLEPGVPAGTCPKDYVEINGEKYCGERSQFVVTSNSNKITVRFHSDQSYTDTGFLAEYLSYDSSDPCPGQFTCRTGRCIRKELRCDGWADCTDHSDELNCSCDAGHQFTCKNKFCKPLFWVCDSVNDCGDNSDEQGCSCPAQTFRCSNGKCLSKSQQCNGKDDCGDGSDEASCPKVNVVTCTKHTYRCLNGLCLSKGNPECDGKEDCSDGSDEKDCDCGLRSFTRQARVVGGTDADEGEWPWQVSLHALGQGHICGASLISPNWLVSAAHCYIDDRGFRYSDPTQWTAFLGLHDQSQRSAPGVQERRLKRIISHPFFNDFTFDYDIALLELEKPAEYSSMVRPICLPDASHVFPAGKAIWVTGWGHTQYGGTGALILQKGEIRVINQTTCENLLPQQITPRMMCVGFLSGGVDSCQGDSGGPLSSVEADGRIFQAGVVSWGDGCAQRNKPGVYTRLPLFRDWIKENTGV

[7] = molecular target: T2, Hepatocyte growth factor activator serine protease (Homo sapiens, UniProt Q04756); assay: Inhibition of C-terminal 10-His tagged human recombinant HGFA (Gln36 to Ser655 residues) using Boc-QLR-AMC as substrate preincubated for 30 mins followed by substrate addition and measured by fluorescence based analysis
T2 sequence (Q04756 whole entry): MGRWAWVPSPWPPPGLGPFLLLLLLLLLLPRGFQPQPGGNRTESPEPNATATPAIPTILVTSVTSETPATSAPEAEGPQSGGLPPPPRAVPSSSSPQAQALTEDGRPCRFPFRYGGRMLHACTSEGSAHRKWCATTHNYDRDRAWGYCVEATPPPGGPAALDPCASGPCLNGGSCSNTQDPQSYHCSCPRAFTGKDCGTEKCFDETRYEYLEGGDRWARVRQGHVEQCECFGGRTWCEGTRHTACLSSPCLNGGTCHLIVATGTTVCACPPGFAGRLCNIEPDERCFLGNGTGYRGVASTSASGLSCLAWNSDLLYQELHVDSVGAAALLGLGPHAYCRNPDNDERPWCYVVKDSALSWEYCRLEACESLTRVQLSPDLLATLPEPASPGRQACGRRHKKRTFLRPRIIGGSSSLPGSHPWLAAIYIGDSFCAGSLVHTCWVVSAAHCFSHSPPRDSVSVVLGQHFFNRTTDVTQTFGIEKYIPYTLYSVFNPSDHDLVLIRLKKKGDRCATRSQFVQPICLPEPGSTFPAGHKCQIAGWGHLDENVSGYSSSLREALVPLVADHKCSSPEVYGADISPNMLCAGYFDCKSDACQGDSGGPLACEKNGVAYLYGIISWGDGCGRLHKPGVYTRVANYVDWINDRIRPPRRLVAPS

[8] = molecular target: Transmembrane protease serine 2 (Homo sapiens, UniProt O15393); assay: Inhibition of N-terminal 6His-tagged human recombinant TMPRSS2 (106 to 492 residues) using Boc-QAR-AMC as substrate preincubated for 30 mins followed by substrate addition and measured by fluorescence based analysis
[9] = molecular target: Coagulation factor X, Homo sapiens (UniProt P00742); assay: Inhibition of factor Xa (unknown origin) using Bz-lle-Glu-Gly-Arg-pNA as chromogenic substrate preincubated for 30 mins followed by substrate addition by absorbance based analysis
Serine protease hepsin = Serine protease hepsin (Homo sapiens, UniProt P05981); assay: Inhibition of C-terminal 10-His tagged human recombinant hepsin (Arg45 to Leu417 residues) using Boc-QAR-AMC as substrate preincubated for 30 mins followed by substrate addition and measured by fluorescence based analysis
[10] = Half life in male CD-1 mouse at 13 to 20 mg/kg, ip administered as single dose and measured upto 24 hrs by LC-MS/MS analysis; format: ADME, organism-based; conditions: in vivo, dose 13-20 mg/kg
[11] = Drug uptake in male CD-1 mouse at 13 to 20 mg/kg, ip administered as single dose and measured upto 24 hrs by LC-MS/MS analysis; format: ADME, organism-based; conditions: in vivo, dose 13-20 mg/kg
Homo sapiens [12] = species on record: Homo sapiens; assay: Selectivity index, ratio of IC50 for inhibition of C-terminal 10-His tagged human recombinant HGFA (Gln36 to Ser655 residues) to IC50 for inhibition of N-terminal 6His-tagged human recombinant TMPRSS2 (106 to 492 residues)
Homo sapiens [13] = species on record: Homo sapiens; assay: Selectivity index, ratio of IC50 for inhibition of C-terminal 10-His tagged human recombinant hepsin (Arg45 to Leu417 residues) to IC50 for inhibition of N-terminal 6His-tagged human recombinant TMPRSS2 (106 to 492 residues)
Homo sapiens [14] = species on record: Homo sapiens; assay: Selectivity index, ratio of IC50 for inhibition of N-terminal Met/6His tagged human recombinant matriptase catalytic domain (Gly596 to Val855 residues) to IC50 for inhibition of N-terminal 6His-tagged human recombinant TMPRSS2 (106 to 492 residues)
[15] = Metabolic stability in mouse plasma assessed as drug degradation measured after 2 hrs; format: ADME, cell-free

Row | Compound | t1/2 [1] [h] | t1/2 [2] [h] | remaining at 2 h [3] [%] | remaining at 2 h [5] [%] | IC50 [6] [nM] | IC50 [8] [nM] | IC50 [9] [nM] | IC50 (Serine protease hepsin) [nM] | also measured
1 | CC(=O)N[C@H]1Cc2ccc(cc2)OC/C=C/C[C@@H](C(=O)N[C@@H](CCCNC(=N)N)C(=O)c2nc3ccccc3s2)NC(=O)[C@H](CC(C)C)NC1=O | > 4.82 | > 4.82 | 86 | 77 | 3.4 | 1.2 | > 20000 | – | beta t1/2 [4]: < 0.5 h; IC50 [7]: 26 nM
2 | CC(=O)N[C@H]1CCCCn2cc(nn2)C[C@H](C(=O)N[C@@H](CCCNC(=N)N)C(=O)c2nc3ccccc3s2)NC(=O)[C@H](CC(C)C)NC1=O | > 4.82 | > 4.82 | 82 | 83 | – | – | – | – | –
3 | CC(=O)N[C@H]1Cc2ccc(cc2)OCCCC[C@@H](C(=O)N[C@@H](CCCNC(=N)N)C(=O)c2nc3ccccc3s2)NC(=O)[C@H](Cc2c[nH]c3ccccc23)NC1=O | 3.82 | > 4.82 | 78 | 67 | – | – | – | 2.8 | –
4 | CC(=O)N[C@H]1Cc2ccc(cc2)Oc2cccc(c2)C[C@@H](C(=O)N[C@@H](CCCNC(=N)N)C(=O)c2nc3ccccc3s2)NC(=O)[C@H](CC(C)C)NC1=O | – | – | – | – | – | – | 13000 | 0.2 | t1/2 [10]: 4.5 h; Drug uptake [11]: Active
5 | CC(=O)N[C@H]1Cc2cn(nn2)CCCC[C@H](C(=O)N[C@@H](CCCNC(=N)N)C(=O)c2nc3ccccc3s2)NC(=O)[C@H](CC(C)C)NC1=O | > 4.82 | > 4.82 | 83 | 85 | – | – | – | – | –
6 | CC(=O)N[C@H]1Cc2ccc(cc2)Oc2ccc(cc2)C[C@@H](C(=O)N[C@@H](CCCNC(=N)N)C(=O)c2nc3ccccc3s2)NC(=O)[C@H](CC(C)C)NC1=O | – | – | – | – | 180 | 1.2 | – | 7.5 | Ratio IC50 (Homo sapiens [12]): 200; Ratio IC50 (Homo sapiens [13]): 6; Ratio IC50 (Homo sapiens [14]): 144; IC50 [7]: 250 nM
7 | CC(=O)N[C@H]1C/C=C/COc2ccc(cc2)C[C@@H](C(=O)N[C@@H](CCCNC(=N)N)C(=O)c2nc3ccccc3s2)NC(=O)[C@H](CC(C)C)NC1=O | 4.77 | > 4.82 | 84 | 78 | 14 | 14 | > 20000 | 20 | IC50 [7]: > 20000 nM
8 | CC(=O)N[C@H]1Cc2ccc(cc2)OC/C=C\CNC(=O)C[C@@H](C(=O)N[C@@H](CCCNC(=N)N)C(=O)c2nc3ccccc3s2)NC(=O)[C@H](CC(C)C)NC1=O | > 4.82 | > 4.82 | 95 | 81 | 54 | 22 | > 20000 | – | Stability [15]: Stable
9 | CC(=O)N[C@H]1Cc2cccc(c2)Oc2ccc(cc2)C[C@@H](C(=O)N[C@@H](CCCNC(=N)N)C(=O)c2nc3ccccc3s2)NC(=O)[C@H](CC(C)C)NC1=O | – | – | – | – | – | 15 | – | – | –
10 | CC(=O)N[C@H]1Cc2ccc(cc2)OCCCC[C@@H](C(=O)N[C@@H](CCCNC(=N)N)C(=O)c2nc3ccccc3s2)NC(=O)[C@H](Cc2ccccc2)NC1=O | 3.15 | > 4.82 | 80 | 65 | – | 16 | – | – | –
11 | CC(=O)N[C@H]1Cc2ccc(cc2)OCCCC[C@@H](C(=O)N[C@@H](CCCNC(=N)N)C(=O)c2nc3ccccc3s2)NC(=O)[C@H](CC(C)C)NC1=O | > 4.82 | > 4.82 | 98 | 79 | – | – | – | – | Stability [15]: Stable
12 | CC(=O)N[C@H]1Cc2ccc(cc2)OC/C=C\CNC(=O)CC[C@@H](C(=O)N[C@@H](CCCNC(=N)N)C(=O)c2nc3ccccc3s2)NC(=O)[C@H](CC(C)C)NC1=O | > 4.82 | 3.93 | 66 | 76 | – | – | > 20000 | – | –
13 | CC(=O)N[C@H]1Cc2ccc(cc2)OCCCC[C@@H](C(=O)N[C@@H](CCCNC(=N)N)C(=O)c2nc3ccccc3s2)NC(=O)[C@@H](Cc2c[nH]c3ccccc23)NC1=O | 1.95 | – | 100 | 53 | – | 3.7 | – | – | Stability [15]: Stable
